Assay results from ChEMBL document CHEMBL1155951 (Bioorg Med Chem Lett, 2008).

How the values were obtained:
[1] = Selectivity index, ratio of IC50 for african green monkey (Cercopithecus aethiops) Vero cells to IC50 for chloroquine-sensitive Plasmodium falciparum F32; assay type: toxicity, cell-based; details: read-out: Ratio IC50
[2] = Selectivity index, ratio of IC50 for african green monkey (Cercopithecus aethiops) Vero cells to IC50 for chloroquine-resistant Plasmodium falciparum FcM29; assay type: toxicity, cell-based; details: read-out: Ratio IC50
[3] = Selectivity index, ratio of IC50 for african green monkey (Cercopithecus aethiops) Vero cells to IC50 for chloroquine-resistant Plasmodium falciparum W2; assay type: toxicity, cell-based; details: read-out: Ratio IC50
Plasmodium falciparum [4] = test: Antiplasmodial activity against chloroquine-resistant Plasmodium falciparum FcB1 after 48 hrs by [3H]hypoxanthine uptake; assay type: functional, organism-based; details: FcB1/Columbia
Plasmodium falciparum [5] = test: Antiplasmodial activity against chloroquine-resistant Plasmodium falciparum W2 after 48 hrs by [3H]hypoxanthine uptake; assay type: functional, organism-based
[6] = Selectivity index, ratio of IC50 for african green monkey (Cercopithecus aethiops) Vero cells to IC50 for chloroquine-resistant Plasmodium falciparum FcB1; assay type: toxicity, cell-based; details: read-out: Ratio IC50
Vero = test: Cytotoxicity against african green monkey Vero cells assessed as [3H]hypoxanthine incorporation after 48 hrs; assay type: cell-based; details: Chlorocebus sabaeus
Plasmodium falciparum [7] = test: Antiplasmodial activity against chloroquine-resistant Plasmodium falciparum FcM29 after 48 hrs by [3H]hypoxanthine uptake; assay type: functional, organism-based
Plasmodium falciparum [8] = test: Antiplasmodial activity against chloroquine-sensitive Plasmodium falciparum F32 after 48 hrs by [3H]hypoxanthine uptake; assay type: functional, organism-based
Plasmodium falciparum [9] = test: Antiplasmodial activity against chloroquine-resistant Plasmodium falciparum W2 gametocytes after 48 hrs by microscopy; assay type: functional, organism-based; details: W2, 48 h

Structure (SMILES)	selectivity ratio [1]	selectivity ratio [2]	selectivity ratio [3]	IC50 (Plasmodium falciparum [4]) [µM]	IC50 (Plasmodium falciparum [5]) [µM]	selectivity ratio [6]	IC50 (Vero) [µM]	IC50 (Plasmodium falciparum [7]) [µM]	IC50 (Plasmodium falciparum [8]) [µM]	IC50 (Plasmodium falciparum [9]) [µM]
COc1cc2cccnc2c2nc(C)c3ccoc3c12	72	129	66	0.93	0.93	39	62.2	0.48	0.86	3.75
COc1cc2cccnc2c2nc(C)c3cc[nH]c3c12	72	23	23	0.22	1.28	132	29.8	1.28	0.41	9.8
Cc1nc2c(ccc3cccnc32)c2[nH]ccc12	47	7	15	1.14	4.17	54	61.6	9.36	1.31	10.6
Cc1nc2c(ccc3cccnc32)c2occc12	32	99	34	0.97	1.1	39	37.6	0.38	1.18	5.5
COc1cc2cccnc2c2nc(C)c(CCCl)c(Cl)c12	–	–	–	4.84	6.56	–	–	5	7.71	–
COc1cc(NC(C)CCCN)c2ncccc2c1 (stereo not given) [PRIMAQUINE]	–	–	–	–	–	–	340	–	–	–
